Data as given in patent US8853258B2, “C-linked hydroxamic acid derivatives useful as antibacterial agents” (Pfizer Inc., priority 2009, dated 2014).
Converted amounts (≈) assume the structure as drawn. Where two headings read alike, the source gives them in different places.

Legend:
Type in all cases: cell-based
[1] = tested on: Pseudomonas aeruginosa UI-18: Wild-type (PA-7); experiment: MIC determination (CLSI), PA-7; settings: for PA-7 MIC: Pseudomonas aeruginosa UI-18 wild-type PA-7; for MIC: Pseudomonas aeruginosa
Method in brief: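 MIC by dilution method per CLSI M7-A7 and M100-S18 guidelines. Strain: wild-type Pseudomonas aeruginosa UI-18.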

[2] = tested on: Escherichia coli EC-1: VOGEL, mouse virulent; experiment: MIC determination (CLSI), EC-1; settings: for EC-1 MIC: Escherichia coli EC-1 VOGEL, mouse virulent; for MIC: Escherichia coli
Method in brief: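 E. coli Vogel, a mouse-virulent strain (EC-1), was tested. MICs were set by dilution susceptibility testing per CLSI standards M7-A7/M100-S18.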

[3] = tested on: Acinetobacter baumanii/haemolyticus: Multidrug-resistant clinical isolate (AB-3167); experiment: MIC determination (CLSI), AB-3167; settings: for AB-3167 MIC: Acinetobacter baumanii/haemolyticus multidrug-resistant clinical isolate AB-3167; for MIC: Acinetobacter baumannii
Method in brief: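 Multidrug-resistant clinical isolate AB-3167 (A. baumannii/haemolyticus) tested for minimum inhibitory concentration following CLSI dilution susceptibility standards M7-A7 and M100-S18.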

[4] = tested on: Klebsiella pneumoniae: Ciprofloxacin-resistant isolate, ESBL, clinical isolate (KP-3700); experiment: MIC determination (CLSI), KP-3700
Method in brief: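 MIC measured by broth dilution according to CLSI M7-A7 and M100-S18 standards. Test organism was a ciprofloxacin-resistant, ESBL-expressing clinical isolate.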

[5] = Table 1, MIC, read-out: PA-7 (MIC)
[6] = Table 1, MIC, read-out: AB-3167 (MIC)

Row | SMILES | PA-7 MIC [1] [µg/mL] | EC-1 MIC [2] | AB-3167 MIC [3] | KP-3700 MIC [4] | MIC ([1]; Table 3, read-out: PA-7 MIC) [µg/mL] | MIC ([2]; read-out: EC-1 MIC) [µg/mL] | MIC ([3]; Table 3, read-out: AB-3167 MIC) [µg/mL] | MIC [1, 5] [µg/mL] | MIC ([2]; read-out: EC-1: (MIC)) [µg/mL] | MIC [3, 6] [µg/mL]
1 | CC(CCc1ccc(-c2cccnc2)cc1)(C(=O)NO)S(C)(=O)=O (racemic) [Example 61] | 16 | ≧64 mg/L | ≧64 mg/L | ≧64 mg/L | – | – | – | – | – | –
2 | COc1cc(O)ccc1-c1ccc(CCC(C)(C(=O)NO)S(C)(=O)=O)cc1 (stereo not shown) [Example 141] | 32 | ≧64 mg/L | ≧64 mg/L | ≧64 mg/L | – | – | – | – | – | –
3 | CC(CCc1ccc(-c2ccco2)cc1)(C(=O)NO)S(C)(=O)=O (stereo not shown) [Example 103] | 4 | 8 µg/mL | 32 µg/mL | 16 µg/mL | – | – | – | – | – | –
4 | CC(CCc1ccc(OCc2nc(-c3cc(F)cc(F)c3)no2)cc1)(C(=O)NO)S(C)(=O)=O (stereo not shown) [Example 255, 4-(4-{[3-(3,5-difluorophenyl)-1,2,4-oxadiazol-5-yl]methoxy}phenyl)-N-hydroxy-2-methyl-2-(methylsulfonyl)butanamide] | – | – | – | ≧64 mg/L | ≥ 64 | 16 (≈ 33.2 µM) | 16 (≈ 33.2 µM) | – | – | –
5 | CC(CCc1ccc(OC2CCCC2)cc1)(C(=O)NO)S(C)(=O)=O (racemic) [Example 15, (+/−)-4-[4-(Cyclopentyloxy)phenyl]-N-hydroxy-2-methyl-2-(methylsulfonyl)butanamide] | – | – | – | ≧64 mg/L | – | – | – | 4 (≈ 11.3 µM) | 16 (≈ 45 µM) | 32 (≈ 90 µM)
6 | CC(CCc1ccc(-c2ccc(CO)cc2)cc1)(C(=O)NO)S(C)(=O)=O (stereo not shown) [Example 112] | 4 | ≧64 mg/L | ≧64 mg/L | ≧64 mg/L | – | – | – | – | – | –
7 | CCC(c1ccccc1)c1noc(COc2ccc(CCC(C)(C(=O)NO)S(C)(=O)=O)cc2)n1 (stereo not shown) [Example 240, N-hydroxy-2-methyl-2-(methylsulfonyl)-4-(4-{[3-(1-phenylpropyl)-1,2,4-oxadiazol-5-yl]methoxy}phenyl)butanamide] | – | – | – | ≧64 mg/L | ≥ 64 | 32 (≈ 65.6 µM) | ≥ 64 | – | – | –
8 | CC(CCc1ccc(OCCOc2ccccc2)cc1)(C(=O)NO)S(C)(=O)=O (stereo not shown) [Example 248, N-hydroxy-2-methyl-2-(methylsulfonyl)-4-[4-(2-phenoxyethoxy)phenyl]butanamide] | – | – | – | 8 µg/mL | 32 (≈ 78.5 µM) | 2 (≈ 4.91 µM) | 32 (≈ 78.5 µM) | – | – | –
9 | COc1ccc(F)c(-c2noc(COc3ccc(CCC(C)(C(=O)NO)S(C)(=O)=O)cc3)n2)c1 (stereo not shown) [Example 259, 4-(4-{[3-(2-fluoro-5-methoxyphenyl)-1,2,4-oxadiazol-5-yl]methoxy}phenyl)-N-hydroxy-2-methyl-2-(methylsulfonyl)butanamide] | – | – | – | ≧64 mg/L | ≥ 64 | 16 (≈ 32.4 µM) | ≥ 64 | – | – | –
10 | CC(CCc1ccc(-c2ccc(C#N)cn2)cc1)(C(=O)NO)S(C)(=O)=O (stereo not shown) [Example 129] | 4 | 16 µg/mL | ≧64 mg/L | ≧64 mg/L | – | – | – | – | – | –
11 | CC(CCc1ccc(-n2cc3ccccc3n2)cc1)(C(=O)NO)S(C)(=O)=O (racemic) [Example 22, (+/−)-N-hydroxy-4-[4-(2H-indazol-2-yl)phenyl]-2-methyl-2-(methylsulfonyl)butanamide] | – | – | – | 8 µg/mL | – | – | – | 4 (≈ 10.3 µM) | 4 (≈ 10.3 µM) | ≥ 64
12 | COc1ncccc1-c1ccc(CCC(C)(C(=O)NO)S(C)(=O)=O)cc1 (racemic) [Example 76] | 16 | 32 µg/mL | ≧64 mg/L | ≧64 mg/L | – | – | – | – | – | –
13 | CC(CCc1ccc(-c2ccc(F)cc2)nc1)(C(=O)NO)S(C)(=O)=O (stereo not shown) [Example 119] | 8 | 16 µg/mL | ≧64 mg/L | ≧64 mg/L | – | – | – | – | – | –
14 | CC(CCc1ccc(OCc2cccc(OC(F)(F)F)c2)cc1)(C(=O)NO)S(C)(=O)=O (stereo not shown) [Example 274, N-hydroxy-2-methyl-2-(methylsulfonyl)-4-(4-{[3-(trifluoromethoxy)benzyl]oxy}phenyl)butanamide] | – | – | – | 16 µg/mL | 16 (≈ 34.7 µM) | 4 (≈ 8.67 µM) | 16 (≈ 34.7 µM) | – | – | –
15 | Cc1ccc(-c2ccc(CCC(C)(C(=O)NO)S(C)(=O)=O)cc2)o1 (stereo not shown) [Example 99] | 8 | 16 µg/mL | ≧64 mg/L | 32 µg/mL | – | – | – | – | – | –
16 | CC(CCc1ccc(OCc2nc(-c3cccc(F)c3)no2)cc1)(C(=O)NO)S(C)(=O)=O (stereo not shown) [Example 241, 4-(4-{[3-(3-fluorophenyl)-1,2,4-oxadiazol-5-yl]methoxy}phenyl)-N-hydroxy-2-methyl-2-(methylsulfonyl)butanamide] | – | – | – | ≧64 mg/L | 32 (≈ 69 µM) | 8 (≈ 17.3 µM) | 16 (≈ 34.5 µM) | – | – | –
